{"source": "patent US11540515B2", "about": "“Use of dialkoxybenzenes for control of honey bee mite varroa destructor” (Simon Fraser University, priority 2018, dated 2023)", "key": {"[1]": {"test_system": "Varroa mites phoretic on young bees", "test": "Example 2 assay on mites phoretic on young bees (mite fall)", "format": "in vivo, Varroa destructor", "settings": "100 microgram/μl solution and dilutions; end of experiment", "description": "(§1) The experiments were conducted in glass petri dish under control environment as described above in Example 1. Two sets of experiments were conducted compound 3c{3,6}:\n2. Assay on mites phoretic on young bees. In this experiment 100 microgram/μ1 solution and its dilutions were used. Two mites were placed on each living young bee.\nIn the second assay the percentage of mites dropping from bees as function of time was measured (FIG. 2)."}, "Varroa mites [2]": {"test_system": "Varroa mites", "test": "Example 2 dose response assay on 10 mites per plate", "format": "in vivo, Varroa destructor", "settings": "doses in microgram", "description": "as §1\n1. Dose response assay on 10 mites per plate. Doses are in microgram.\nIn the first assay the percentage of dead mites as function of exposure time to different quantities of the compound was measured. […] The effective doses are relatively high."}, "honey bee antennae": {"test_system": "honey bee antennae", "test": "Electroantennography (EAG) on honey bee antennae stimulated with nurse bee headspace odor", "parameters": "species or system Apis mellifera", "from_the_text": "In the electroantennography (EAG), the Varroa foreleg or bee antennae were used for the assay. The organs were stimulated by puffs of nurse honeybee odor, or clean air (control). Briefly, once a foreleg or bee antenna preparation was found responsive to a positive stimulus, the tested chemical was blown over the leg/antenna with or without positive stimuli. Headspace of five nurse bees was used as a positive stimulus. This stimuli were selected for Varroa following the procedure described, for example, in Eliash, N. et al., (2014) PLoS One, (2014) 9(12): e116127, incorporated herein by reference in its entirety, and following dose response tests on nurse antennae challenged with headspace of 1, 5 and 10 nurse or forager bees. Electrophysiological responses of isolated Varroa foreleg and bee antennae were recorded using Synthech equipment, and the order of stimuli was as explained in Singh, K. N. et al., (2014) Apidologie, 46: 380-391, incorporated herein by reference in its entirety. The response amplitude was recorded for each stimulus and normalized relative to air."}, "Varroa destructor mites": {"test_system": "Varroa destructor mites", "test": "Example 3 paralysis assays in petri dishes (dose response, screen, blends)", "format": "in vivo", "description": "Paralysis assays. These assays were done in 10 cm glass Petri dishes. A 3×3 cm piece of Parafilm was stuck to the lid of the dish, in the middle. The Parafilm received […], either pure (controls) or with the compound (treatments). The bottom of the dish received one freshly thawed nurse and one freshly thawed forager, placed ˜3 cm from the center of the dish. One mite was placed between the nurse and the forager, the lid was closed and groups of dishes were placed in an incubator at 30° C. Humidity levels were kept at around 35-40%.\nObservation times were 3 h and 5 h. Mites were scored for whether the mite could move normally, was paralyzed (had difficulty moving) or dead (not moving).\nEach assay was done in 5 technical replicates, in two biological replicates. Thus, each biological replicate was scored out of 5.\nExperiments were performed in the dishes: i) dose response assays with a single compound at different doses of compound on the Parafilm (1 ng, 10 ng, 100 ng, 1 μg, 10 μg, 100 μg, 1 mg and 10 mg), ii) a screen with six compounds, all at a 1 mg dose, iii) an assay with blends of compounds 3c{3,6} and 3c{6,6}, and iv) one assay without bees (only to check for mite paralysis and death), with compounds 3c{3,6} and 3c{6,6}(pure or 1:1 blend), at 0.5 and 1 mg doses."}, "Varroa mites [3]": {"test_system": "Varroa mites", "test": "Example 6 behavioral dose response bio-assays of Varroa mites", "format": "in vivo", "from_the_text": "Foragers were collected at the entrance of one or more honey bee hives by aspiration into a jar, when bees were flying back to the colony.\nInitially, nurses were collected from an open brood frame of a honey bee hive. Bees apparently attending the brood were targeted for collection. As time passed and temperatures started to drop no open brood was observed, therefore subsequent collections targeted bees around sealed brood. At the end of the sampling period no sealed brood was present, so bees taken from the middle frame of a brood chamber were considered nurses.\nBoth foragers and nurses were immediately transferred to individual plastic cages (118×98×81 mm: H×W×D), fed with syrup (2:1) and kept overnight in an incubator at 30° C. and 70% RH. Next day, cages were inspected for any dead bees to be removed before freeze killing the bees on dry ice.\nFor Varroa mite collection, adult bees were taken from the brood chamber's central frames of a mite-infested hive using a glass jar. Bees were fed with syrup (2:1), and kept in an incubator at 30° C. and 70% RH until needed. First collections were made from frames with open and sealed brood, later only from sealed brood frames.\nMite-infested bees in the glass jar were dusted with icy sugar and shaken over a large plastic weighing boat. Dislodged Varroa were immediately transferred with a fine paint brush to a wet filter paper in a plastic petri dish to avoid desiccation. Individual mites were placed then onto the middle of a glass petri dish bottom (10 cm diameter) with a fresh freeze-killed forager or nurse bee on opposite sides of the plate. Synthesized compounds were applied onto a 1 cm^2 Parafilm square attached to the center of the petri dish cover's inner face, Hexane was used as control.\nThe bio-assays with a forager and a nurse bee, Varroa mite, and synthesized compounds were set in glass petri dishes placed into an incubator at 30° C. and 70% relative humidity. […] Mite paralysis and death were recorded after 3 h and 5 h."}, "honey bees [4]": {"test_system": "honey bees", "test": "Bee mortality in hoarding cages, 3c{3,6} provided in sugar solution", "format": "in vivo, Apis mellifera", "description": "3c{3,6} provided in sugar solution: The test was conducted on twenty freshly collected bees in hoarding cages as described above. […] In addition, no differences were apparent in the general behavior of the honeybees. Furthermore, honey bees can ingest compound 3c{3,6} without harm and without increase in mortality."}, "honey bees [5]": {"test_system": "honey bees", "test": "Bee mortality in hoarding cages, 3c{3,6} sensed by smell", "format": "in vivo, Apis mellifera", "description": "3c{3,6} sensed by smell: Bees were maintained in the classic hoarding cages. The test was conducted on twenty freshly collected bees in hoarding cages as above. The method that was used for screening potentially harmful compounds was as described, for example, in Medrzycki et al., 2013 (J. Apicultural Res. 52 (4): UNSP 52.4.14, http://dx.doi.org/10.3896/IBRA.1.52.4.14, incorporated herein by reference in its entirety. The bees were provided with water and candy at lib. The experiments were conducted in ten sets in the presence of 30 μl of hexane containing 300 μg of the 3c{3,6} compound presented in Parafilm (5×5 cm); 30 μl of pure hexane was used for control. The experimental and control cages were kept in separate incubators at (28-30° C.) and RH (50-70%) and the bee mortality rate was recorded at 24, 48 and 72 hours. Survival of bees in control and treated groups at the end was similar (79-90%)."}}, "note": "Entries after “also recorded” stand apart in the source; their conditions may differ."}
{"compound": "C=CCOc1ccc(OCCC)cc1", "note": "[3c{3,6}, 1-allyloxy-4-propoxybenzene]", "values": [{"measurement": "mites dropping from bees as function of time (FIG. 2)", "setting": "[1]", "result": "dropped dead off the bees"}, {"measurement": "percentage of dead mites as function of exposure time to different quantities (acaricidal effect, FIG. 1)", "setting": "Varroa mites [2]", "result": "clear and it is dose dependent"}, {"measurement": "response of honey bee antennae towards nurse bee head space odor", "setting": "honey bee antennae", "result": "not affected"}, {"measurement": "paralysis and mite death in screen", "setting": "Varroa destructor mites; 1 mg dose, 3 h", "result": "most reliable mite paralysis"}, {"measurement": "net paralysis+death of mites, comparison of compounds", "setting": "Varroa destructor mites; 0.5 and 1 mg/treatment", "result": "more active than 3c{6,6}"}, {"measurement": "EC50 for paralysis and eventual death of mites", "setting": "Varroa destructor mites; neat compound on the source, vapors only, 3 h", "result": 41.5, "unit": "µg"}, {"measurement": "mites dead", "setting": "Varroa mites [3]; 100 μg", "result": "half of the mites dead"}, {"measurement": "mite paralysis/mortality", "setting": "Varroa mites [3]; 1 mg", "result": 100, "unit": "%"}, {"measurement": "mite paralysis/mortality (words)", "setting": "Varroa mites [3]; 1 mg", "result": "total effectivity; also recorded: all mites"}, {"measurement": "doses at which mites were paralyzed or killed", "setting": "Varroa mites [3]; FIG. 9 / FIG. 10", "result": "≥ 10", "unit": "µg"}, {"measurement": "effect on the honeybees", "setting": "honey bees [4]", "result": "did not have negative effect"}, {"measurement": "bees died at the end of experiment", "setting": "honey bees [4]; after 72 hours, treated group (control 21%)", "result": 5, "unit": "%"}, {"measurement": "Survival of bees at the end", "setting": "honey bees [5]; 300 μg in 30 μl hexane on Parafilm, 72 hours, control and treated groups similar", "result": "79-90%"}, {"measurement": "lethal effect to the honey bees", "setting": "honey bees [5]; in vivo", "result": "No lethal effect"}]}
